Measurements taken from patent US20230312530A1, “SALT OF RHO-ASSOCIATED PROTEIN KINASE INHIBITOR, SOLID FORM OF THE SALT, PREPARATION METHOD FOR SAME, AND USES THEREOF” (BEIJING TIDE PHARMACEUTICAL CO., LTD., priority 2020, published 2023).

Assay: Pharmacokinetic test, single oral administration to beagle dogs
Type: in vivo
Conditions: dog, blood, 20 mg/kg, once, 20 mpk, vehicle 0.5% CMC-Na
Protocol: The crystalline form I of compound A monohydrochloride monohydrate and compound A (vehicles for both samples were 0.5% CMC-Na) were respectively orally administered once to two groups of beagle dogs at a dose of 20 mpk, and blood samples were collected before the administration (0 h) and at 0.25, 0.5, 1, 2, 4, 6, 8 and 24 hours after the administration. The samples were processed and subjected to a chromatographic analysis.

- Cmax: 147 ng/mL
- AUC(0-t) (sampling to 24 hours): 522 ng·h/mL
Structure (SMILES): Cn1c(C(=O)N2CC(F)(F)C2)cc2ccc(-c3nccc(Nc4ccc(-c5cn[nH]c5)cc4)n3)cc21 [Compound A, (6-(4-((4-(1H-pyrazol-4-yl)phenyl)amino)pyrimidin-2-yl)-1-methyl-1H-indol-2-yl)(3,3-difluoroazetidin-1-yl)methanone]
